Results on one molecule are retold here after patent US20050009030A1, “Histone deacetylase: novel molecular target of neurotoxicity” (priority 2002, published 2005).

This experiment has as its system rat cerebellar granule cells. Put plainly: Excitotoxicity in rat cerebellar granule cells induced by NMDA/serine or kainate, measured by MTT test. Type of experiment: cell-based. To be noted: excitotoxicity induced by 100 μM NMDA and 10 μM serine, or by 50 μM kainate; 30 to 40% toxicity by MTT tests. As to the method:
For this example, rat cerebellar granule cells were placed in culture, according to techniques known to those skilled in the art. Excitotoxicity was induced in these cells by two types of treatment: firstly, by the joint administration of 100 μM NMDA (N-Methyl-D-aspartic acid) and 10 μM serine, and secondly by administration of 50 μM kainate. Under the experimental conditions adopted, 30 to 40% toxicity was observed and measured using MTT tests, known to those skilled in the art.
Background: Formazan colour is commonly taken as a measure of viable cells.

In the case of `CC(/C=C/C(=O)NO)=C\[C@@H](C)C(=O)c1ccc(N(C)C)cc1` [trichostatin A], the Inhibition of excitotoxicity result is recorded as “Inhibition of excitotoxicity can be demonstrated”.
